Data: US9505734B2, “Phenyl C-glucoside derivative containing deoxyglucose structure, preparation method and use thereof” (Tianjin Institute of Pharmaceutical Research, priority 2012, dated 2016)
“Also recorded” adds a separate entry of the source.

Tests used:
[1] = influencing factors test: higher humidity stability; assay type: physicochemical
Source text: (§1) The appearance, number of impurity and the amount of impurity (measured by HPLC) are compared with that of day 0.

[2] = influencing factors test: higher temperature stability; assay type: physicochemical; conditions: higher temperature (45° C.), listed as I-D1-6 raw materials
Source text: as §1

[3] = influencing factors test: light stability; assay type: physicochemical; conditions: listed as I-D1-6 raw materials
Source text: as §1

[4] = target: hSGLT2 (Homo sapiens (Human), UniProt P31639); experiment: IC50 of inhibition on SGLT2; assay type: cell-based; conditions: in words
[5] = system: SD rats (type 2 diabetes model); experiment: model for rat urine glucose excretion (glucose-oxidase method); assay type: in vivo; conditions: comparison in words, rat urine glucose excretion model, 6 mg/kg
[6] = target: hSGLT1 (Homo sapiens (Human), UniProt P13866); experiment: IC50 of inhibition on SGLT1; assay type: cell-based; conditions: in words
[7] = higher humidity, day 0, HPLC, listed as I-D1-6 raw materials
[8] = higher humidity, day 7, HPLC, listed as I-D1-6 raw materials
[9] = higher humidity, day 14, HPLC, listed as I-D1-6 raw materials

Sequence of hSGLT2 (P31639 whole entry): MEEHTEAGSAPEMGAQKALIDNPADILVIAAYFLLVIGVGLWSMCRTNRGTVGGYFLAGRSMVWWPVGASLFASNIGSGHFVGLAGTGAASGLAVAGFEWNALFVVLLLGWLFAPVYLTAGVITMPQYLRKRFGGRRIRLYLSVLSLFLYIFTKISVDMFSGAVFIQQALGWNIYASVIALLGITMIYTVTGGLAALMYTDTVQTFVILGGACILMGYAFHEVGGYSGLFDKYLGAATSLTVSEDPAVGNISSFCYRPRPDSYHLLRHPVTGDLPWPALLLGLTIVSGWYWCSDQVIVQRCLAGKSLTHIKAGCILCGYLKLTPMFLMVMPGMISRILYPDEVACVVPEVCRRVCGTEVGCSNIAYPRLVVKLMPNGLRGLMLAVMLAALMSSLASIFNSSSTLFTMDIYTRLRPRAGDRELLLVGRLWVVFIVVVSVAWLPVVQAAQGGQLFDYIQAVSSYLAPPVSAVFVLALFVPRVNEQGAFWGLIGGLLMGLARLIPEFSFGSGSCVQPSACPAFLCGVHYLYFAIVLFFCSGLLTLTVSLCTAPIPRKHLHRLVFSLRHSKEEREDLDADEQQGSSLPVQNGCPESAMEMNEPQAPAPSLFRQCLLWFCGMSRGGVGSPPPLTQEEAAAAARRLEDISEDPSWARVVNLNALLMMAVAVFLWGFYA
Sequence of hSGLT1 (P13866 whole entry): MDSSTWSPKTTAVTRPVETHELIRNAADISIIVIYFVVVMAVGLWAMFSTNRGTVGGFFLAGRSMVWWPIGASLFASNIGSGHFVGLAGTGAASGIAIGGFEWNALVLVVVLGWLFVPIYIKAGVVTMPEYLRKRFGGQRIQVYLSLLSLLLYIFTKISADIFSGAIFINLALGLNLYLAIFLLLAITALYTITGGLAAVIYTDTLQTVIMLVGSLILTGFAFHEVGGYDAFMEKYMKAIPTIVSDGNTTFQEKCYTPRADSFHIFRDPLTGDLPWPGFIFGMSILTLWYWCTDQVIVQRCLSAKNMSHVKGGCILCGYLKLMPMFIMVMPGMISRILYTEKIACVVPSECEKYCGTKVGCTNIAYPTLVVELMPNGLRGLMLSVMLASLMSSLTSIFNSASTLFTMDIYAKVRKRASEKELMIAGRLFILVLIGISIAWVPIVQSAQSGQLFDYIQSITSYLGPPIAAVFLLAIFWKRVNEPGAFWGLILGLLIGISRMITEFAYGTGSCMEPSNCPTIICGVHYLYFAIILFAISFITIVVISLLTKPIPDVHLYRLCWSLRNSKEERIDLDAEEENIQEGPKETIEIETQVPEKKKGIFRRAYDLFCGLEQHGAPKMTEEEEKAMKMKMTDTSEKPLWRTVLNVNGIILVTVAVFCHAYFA

## CCOc1ccc(Cc2cc(C3OC(C)C(O)C(O)C3O)ccc2Cl)cc1 [I-D1-6, (1S)-1-[4-chloro-3-(4-ethoxybenzyl)phenyl]-1,6-dideoxy-D-glucose]
[1]; higher humidity (30% relative humidity at 30° C.), day 0, listed as I-D1-6 raw materials
  Appearance: white,
[1]; [7]
  Number of impurity: 7
  Total amount of impurity (%): 0.89%
[1]; higher humidity, day 7
  Appearance: white
[1]; [8]
  Number of impurity: 7
  Total amount of impurity (%): 0.93%
[1]; higher humidity, day 14
  Appearance: white
[1]; [9]
  Number of impurity: 8
  Total amount of impurity (%): 1.08%
[2]; day 0, HPLC
  Number of impurity: 7
  Total amount of impurity (%): 0.89%
[2]; day 0
  Appearance: white,
[2]; day 7, HPLC
  Number of impurity: 8
  Total amount of impurity (%): 0.97%
[2]; day 7
  Appearance: white,
[2]; day 14, HPLC
  Number of impurity: 9
  Total amount of impurity (%): 1.13%
[2]; day 14
  Appearance: white,
[3]; light (natural daylight, about 80000 Lx), day 0
  Appearance: a white,
[3]; light, day 0, HPLC
  Number of impurity: 7
  Total amount of impurity (%): 0.89%
[3]; light, day 7, HPLC
  Number of impurity: 7
  Total amount of impurity (%): 0.93%
[3]; light, day 7
  Appearance: a white,
[3]; light, day 14, HPLC
  Number of impurity: 7
  Total amount of impurity (%): 0.96%
[3]; light, day 14
  Appearance: a white,
[4]
  inhibition to SGLT2 (in words): inhibitory effect on SGLT2 enzyme; also recorded: much stronger inhibition to SGLT2
  selectivity on SGLT1/SGLT2 (in words): much better selectivity on SGLT1/SGLT2
[5]
  urine glucose excretion effect (in words): stronger urine glucose excretion effect
[6]
  inhibition to SGLT1 (in words): much less inhibition to SGLT1
